Assay results as given in patent publication US20230111310A1, “CARBOXYLIC ACID DERIVATIVE-SUBSTITUTED IMINO ARYL COMPOUND, PREPARATION METHOD THEREFOR, HERBICIDAL COMPOSITION AND USE THEREOF” (Qingdao Kingagroot Chemical Compound Co., Ltd., priority 2020, published 2023).

Columns and labels:
Assay in all cases: Weeding effect in post-emergence stage
Format in all cases: in vivo
[1] = system: Alopecurus japonicus; conditions: Dose 15 g/ha; for Weeding effect in post-emergence stage, Alopecurus japonicus: level of fresh weight growth control rate
Procedure, shortened: (§1)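 Seeds are sown in soil-filled pots under 0.5-2 cm soil and grown 2 weeks in greenhouse. Plants at 2-3 leaves are sprayed with compound (acetone, Tween 80, 1.5 liter/ha methyl oleate EC, water) at 7.5 to 500 g/ha. Damage is rated 3 weeks later, averaging three repeats.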

[2] = system: Setaria viridis; conditions: Dose 15 g/ha; for Weeding effect in post-emergence stage, Setaria viridis: level of fresh weight growth control rate
Procedure, shortened: as §1

[3] = system: Abutilon theophrasti; conditions: Dose 15 g/ha; for Weeding effect in post-emergence stage, Abutilon theophrasti: level of fresh weight growth control rate
Procedure, shortened: as §1

[4] = system: Eleusine indica; conditions: Dose 15 g/ha; for Weeding effect in post-emergence stage, Eleusine indica: level of fresh weight growth control rate
Procedure, shortened: as §1

[5] = system: Digitaria sanguinalis; conditions: Dose 15 g/ha; for Weeding effect in post-emergence stage, Digitaria sanguinalis: level of fresh weight growth control rate
Procedure, shortened: as §1

[6] = system: Echinochloa crusgalli; conditions: Dose 15 g/ha; for Weeding effect in post-emergence stage, Echinochloa crusgalli: level of fresh weight growth control rate
Procedure, shortened: as §1

[7] = fresh weight control rate level

| SMILES | Weeding effect in post-emergence stage, Alopecurus japonicus [1] | Weeding effect in post-emergence stage, Setaria viridis [2] | Weeding effect in post-emergence stage, Abutilon theophrasti [3] | Weeding effect in post-emergence stage, Eleusine indica [4] | Weeding effect in post-emergence stage, Digitaria sanguinalis [5] | Weeding effect in post-emergence stage, Echinochloa crusgalli [6] | Weeding effect in post-emergence stage, Alopecurus japonicus (level) [1, 7] | Weeding effect in post-emergence stage, Setaria viridis (level) [2, 7] | Weeding effect in post-emergence stage, Abutilon theophrasti (level) [3, 7] | Weeding effect in post-emergence stage, Eleusine indica (level) [4, 7] | Weeding effect in post-emergence stage, Digitaria sanguinalis (level) [5, 7] | Weeding effect in post-emergence stage, Echinochloa crusgalli (level) [6, 7] |
| --- | --- | --- | --- | --- | --- | --- | --- | --- | --- | --- | --- | --- |
| CC(O/N=C/c1cc(-n2c(=O)cc(C(F)(F)F)n(C)c2=O)c(F)cc1Cl)C(=O)OC(C)(C)C (racemic) [Compound 202] | 5 (Level 5: growth control rate is above 85%) | 5 (Level 5: growth control rate is above 85%) | 5 (Level 5: growth control rate is above 85%) | 5 (Level 5: growth control rate is above 85%) | 5 (Level 5: growth control rate is above 85%) | 5 (Level 5: growth control rate is above 85%) |  |  |  |  |  |  |
| CC(O/N=C/c1cc(-n2c(=O)n(C)c(=S)n(C)c2=O)c(F)cc1Cl)C(=O)OCC1CC1 (racemic) [Compound 9] | 5 (Level 5: growth control rate is above 85%) | 5 (Level 5: growth control rate is above 85%) | 5 (Level 5: growth control rate is above 85%) | 5 (Level 5: growth control rate is above 85%) | 5 (Level 5: growth control rate is above 85%) | 5 (Level 5: growth control rate is above 85%) |  |  |  |  |  |  |
| C[C@@H](O/N=C/c1cc(-n2c(=O)cc(C(F)(F)F)n(C)c2=O)c(F)cc1Cl)C(=O)OC1CCCC1 [214(R)] | 5 (Level 5: growth control rate is above 85%) | 5 (Level 5: growth control rate is above 85%) | 5 (Level 5: growth control rate is above 85%) | 5 (Level 5: growth control rate is above 85%) | 5 (Level 5: growth control rate is above 85%) | 5 (Level 5: growth control rate is above 85%) |  |  |  |  |  |  |
| CC(=NOC(=O)C(C)ON=Cc1cc(-n2c(=O)cc(C(F)(F)F)n(C)c2=O)c(F)cc1Cl)C1CC1 (stereo not drawn) [Compound 450] |  |  |  |  |  |  | 5 (Level 5: growth control rate is above 85%) | 5 (Level 5: growth control rate is above 85%) | 5 (Level 5: growth control rate is above 85%) | 5 (Level 5: growth control rate is above 85%) | 5 (Level 5: growth control rate is above 85%) | 5 (Level 5: growth control rate is above 85%) |
| COC[C@@H](O/N=C/c1cc(-n2c(=O)n(C)c(=S)n(C)c2=O)c(F)cc1Cl)C(=O)OC [80(R)] | 5 (Level 5: growth control rate is above 85%) | 5 (Level 5: growth control rate is above 85%) | 5 (Level 5: growth control rate is above 85%) | 5 (Level 5: growth control rate is above 85%) | 5 (Level 5: growth control rate is above 85%) | 5 (Level 5: growth control rate is above 85%) |  |  |  |  |  |  |
| CC(C)=NOC(=O)C(C)O/N=C/c1cc(-n2c(=O)cc(C(F)(F)F)n(C)c2=O)c(F)cc1Cl (stereo not drawn) [Compound 248] | 5 (Level 5: growth control rate is above 85%) | 5 (Level 5: growth control rate is above 85%) | 5 (Level 5: growth control rate is above 85%) | 5 (Level 5: growth control rate is above 85%) | 5 (Level 5: growth control rate is above 85%) | 5 (Level 5: growth control rate is above 85%) |  |  |  |  |  |  |
